Measurements taken from patent US4341790A, “Pyrrolidinylalkylcarboxylic acid amide derivatives, their preparation and pharmaceutical compositions containing them” (A. Nattermann & Cie. GmbH, priority 1979, dated 1982).
“Also recorded” adds a separate entry of the source. Like-named read-outs stand apart in the source and are kept apart here.

Columns and labels:
male mice = type: in vivo
Source text: (§1) 2. Prolongation of the cerebral survival time in the case of hypoxaemia caused by sub-atmospheric pressure.
(§2) This neuropathological behaviour is induced in male mice by a progressive reduction of the pressure to 26.66 kPa in an observation chamber and is used as an indicator of the cerebral hypoxia period. It ends in the death of the experimental animal.

[1] = LD50 / toxicity and toleration; type: in vivo, mice; conditions: mouse, in vivo, mice
mice = assay: LD50 / toxicity and toleration; type: in vivo; conditions: in words
[2] = Cerebral protection / vaso-active and metabolism-regulating properties (overall); type: in vivo, mice; conditions: in words
Description: The following methods have been used to investigate the pharmacodynamic properties of the compounds according to the invention:
1. Prolongation of cerebral survival time under hypoxaemia caused by NaNO2.
Starting from the results of Gibson and Blass (J. Neurochemistry 27, 1976), a cerebral hypoxia is produced in male mice by means of NaNO2 (225 mg/kg, subcutaneous). The cerebral hypoxia period is marked by a characteristic spasmodic behaviour and ends in the death of the experimental animals.
as §1, §2
3. Protection against amnesia induced by electric shock.
Starting from the results of Taber and Banuazizi (Psychopharmakologia 9, 1966), male mice are taught not to enter a certain compartment of the cage in order to avoid an electric shock. The response is extinguished by means of an electric shock administered via head electrodes (electric shock amnesia).

thrombocytes = assay: Inhibition of aggregation of thrombocytes; conditions: in words
[3] = Tranquillising properties; type: in vivo; conditions: in words

## CN(C)CCOC(=O)COc1ccc(Cl)cc1 [Meclofenoxate, meclofenoxate]
Male mice; po
  Sub-atmospheric pressure hypoxaemia: -

## NC(=O)CN1CCCC1=O [Piracetam, piracetam]
Male mice; po
  Sub-atmospheric pressure hypoxaemia: +

## COc1ccc(Cc2nccc3cc(OC)c(OC)cc23)cc1OC [Papaverine, papaverine]
Male mice; iv
  Sub-atmospheric pressure hypoxaemia: -

## CC[C@]12CCCN3CCc4c(n(c5ccccc45)[C@@](O)(C(=O)OC)C1)[C@@H]32 [Vincamine, vincamine]
Male mice; po
  Sub-atmospheric pressure hypoxaemia: +

## Cc1cccc(C)c1NC(=O)CN1CCCC1=O [Example 6, 2-Oxo-1-pyrrolidinylacetic acid, 2,6-dimethylanilide]
Male mice; po
  Sub-atmospheric pressure hypoxaemia: +
[1]; iv, administered intravenously
  LD50: 421 mg/kg
[1]; po, administered orally
  LD50: 1770 mg/kg
mice
  toleration: well tolerated; also recorded: good toleration
  toxicity: very low toxicity
[2]
  activity / effectiveness (vaso-active, metabolism-regulating, cerebral protection): highly active; also recorded: excellent activity
[2]; listed as 2-Oxo-1-pyrrolidinylacetic acid-2,6-dimethylanilide
  activity / effectiveness (vaso-active, metabolism-regulating, cerebral protection): particularly effective
thrombocytes
  effect of inhibiting aggregation of thrombocytes: inhibiting aggregation of thrombocytes
[3]
  tranquillising properties: good tranquillising properties

## CC(C)NCC(O)COc1cccc2ccccc12 (stereo not drawn) [Propranol, propranolol]
Male mice; po
  Sub-atmospheric pressure hypoxaemia: -

## O=C(CN1CCCC1=O)Nc1ccccc1 [PA, 2-oxo-1-pyrrolidinylacetic acid anilide, reference compound]
Male mice; po
  Sub-atmospheric pressure hypoxaemia: -
[2]
  activity / effectiveness (vaso-active, metabolism-regulating, cerebral protection): exhibits none of these effects

## Cc1ncc(CSSCc2cnc(C)c(O)c2CO)c(CO)c1O [Pyritinol, pyritinol]
Male mice; po
  Sub-atmospheric pressure hypoxaemia: -

## C(=C\c1ccccc1)/CN1CCN(C(c2ccccc2)c2ccccc2)CC1 [Cinnarizine, cinnarizine]
Male mice; po
  Sub-atmospheric pressure hypoxaemia: -
